In PubChem BioAssay AID1963972 (Molecular Pharmacology Branch, DTP, NCI, 2024):

Tested on: 945468-187-T-J2-PDC spheroids viability
Test: Anticancer human tumor 945468-187-T-J2-PDC patient-derived rectal carcinoma cell line growth inhibition [PI3K]
Details: spheroids with HUVEC and MSC; for IC50: curve of first compound; for viability, T/C: stronger effect = lower value
Text: Combinatorial screen of targeted agents with the PI3K inhibitors inavolisib, alpelisib, duvelisib, and copanlisib in multi-cell type tumor spheroids
A high-throughput screen of multi-cell type tumor spheroids was designed to identify active combinations of targeted small molecules and PI3K pathway inhibitors. Complex spheroids include a stromal component modeled by human endothelial cells (HUVEC) and fibroblasts modeled by human mesenchymal stem cells (MSCs). The concentration ranges selected for each drug and investigational agent were based upon clinically achievable concentrations if the clinical Cmax of the agent was known.
Compounds. The drugs and investigational agents: inavolisib (NSC800729), alpelisib (NSC765974), duvelisib (NSC772469), copanlisib (NSC816437), ipatasertib (NSC767898), afuresertib (NSC778305), talazoparib (NSC767125), sapanisertib (NSC764658), selumetinib (NSC741078), tovorafenib (DAY101, NSC766906), vemurafenib (NSC761431), ravoxertinib (NSC781343), sotorasib (NSC818433), MRTX1133 (NSC 836407), abemaciclib (NSC 768073), palbociclib (NSC758247), venetoclax (NSC 766270), SY5609 (NSC837396), enzalutamide (NSC755605), and darolutamide (NSC825331), were obtained from the National Cancer Institute (NCI) Developmental Therapeutics Program Chemical Repository. The FDA-approved anticancer drug set is available from the NCI Developmental Therapeutics Program. […] The stock solutions were prepared in dimethyl sulfoxide (DMSO, Sigma-Aldrich, St. Louis, MO, cat. D2650) at 800-fold the tested concentration and stored at -70 degrees C prior to their use. All drugs and investigational agents were tested over a range starting from a high concentration at or near the clinical Cmax and decreasing in half-log increments. If the clinical Cmax for an agent had not been determined, the highest concentration tested was 10 microM.
Cell Culture. All cells were maintained in an incubator at 37 degrees C and 5% CO2 with 95% humidity. The PDC lines were cultured according to standard operating procedures established by the NCI PDMR (https://pdmr.cancer.gov/sops/default.htm). All PDCs were thawed and cultured in Matrigel-coated flasks prepared with a working solution of 1X Ham's F-12 nutrient mix, without supplementation (Invitrogen, Waltham, MA, cat. 11765054), 100 U/mL penicillin-streptomycin (Invitrogen, cat. 15140122), and 2.5% Matrigel (Corning Inc., Corning, NY, cat. 354248) for the first three passages. The 354836-022-R-J1-PDC, 475296-252-R-J1-PDC, and 997726-040-R-J2-PDC lines were cultured in 6A media, which includes advanced DMEM/F-12 (Thermo Fisher Scientific, cat. 12634028), 10 mM HEPES (Thermo Fisher Scientific, cat. 15630080), 1X GlutaMAX supplement (Thermo Fisher Scientific, cat. 35050061), 0.1 mg/mL primocin (InvivoGen, San Diego, CA, cat. ant-pm-2), 10% defined fetal bovine serum, heat inactivated (HyClone Laboratories Inc., Logan, UT, cat. SH30070.03HI), 50% L-WRN conditioned media (ATCC, cat. CRL-3276), 1.25 mM N-Acetyl-L-cysteine (Sigma-Aldrich, cat. A9165), 10 mM nicotinamide (Sigma-Aldrich, cat. N0636), 1X B-27 supplement (Thermo Fisher Scientific, cat. 17504044), 1X N-2 supplement (Thermo Fisher Scientific, cat. 17502048), and 10 microM Y-27632 dihydrochloride (Tocris Bioscience, Bristol, United Kingdom, cat. 1254). The 624824-186-R-J2-PDC line was cultured in 6C/Colon 1B media, which includes all 6A media components plus 50 ng/mL human EGF recombinant protein (Thermo Fisher Scientific, cat. PHG0311). […]

[1] = second compound 0.00316 µM, first compound 0.0316 µM
[2] = second compound 0.00316 µM, first compound 0.1 µM
[3] = second compound 0.00316 µM, first compound 0.316 µM
[4] = second compound 0.00316 µM, first compound 1 µM
[5] = second compound 0.00316 µM, first compound 3.16 µM
[6] = second compound 0.00316 µM, first compound 10 µM
[7] = second compound 0.01 µM, first compound 0.0316 µM
[8] = second compound 0.01 µM, first compound 0.1 µM
[9] = second compound 0.01 µM, first compound 0.316 µM
[10] = second compound 0.01 µM, first compound 1 µM
[11] = second compound 0.01 µM, first compound 3.16 µM
[12] = second compound 0.01 µM, first compound 10 µM
[13] = second compound 0.0316 µM, first compound 0.0316 µM
[14] = second compound 0.0316 µM, first compound 0.1 µM
[15] = second compound 0.0316 µM, first compound 0.316 µM
[16] = second compound 0.0316 µM, first compound 1 µM
[17] = second compound 0.0316 µM, first compound 3.16 µM
[18] = second compound 0.0316 µM, first compound 10 µM
[19] = second compound 0.1 µM, first compound 0.0316 µM
[20] = second compound 0.1 µM, first compound 0.1 µM
[21] = second compound 0.1 µM, first compound 0.316 µM
[22] = second compound 0.1 µM, first compound 1 µM
[23] = second compound 0.1 µM, first compound 3.16 µM
[24] = second compound 0.1 µM, first compound 10 µM
[25] = second compound 0.316 µM, first compound 0.0316 µM
[26] = second compound 0.316 µM, first compound 0.1 µM
[27] = second compound 0.316 µM, first compound 0.316 µM
[28] = second compound 0.316 µM, first compound 1 µM
[29] = second compound 0.316 µM, first compound 3.16 µM
[30] = second compound 0.316 µM, first compound 10 µM
[31] = second compound 1 µM, first compound 0.0316 µM
[32] = second compound 1 µM, first compound 0.1 µM
[33] = second compound 1 µM, first compound 0.316 µM
[34] = second compound 1 µM, first compound 1 µM
[35] = second compound 1 µM, first compound 3.16 µM
[36] = second compound 1 µM, first compound 10 µM
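Also: spheroids exposed to compounds for seven days before reading.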

**Q.** For CC1(C)CCC(CN2CCN(c3ccc(C(=O)NS(=O)(=O)c4ccc(NCC5CCOCC5)c([N+](=O)[O-])c4)c(Oc4cnc5[nH]ccc5c4)c3)CC2)=C(c2ccc(Cl)cc2)C1 + CC(Nc1ccc2c(c1)OCCn1cc(N3C(=O)OCC3C(F)F)nc1-2)C(N)=O, which IC50 (second compound 0.00316 µM) is on record?
**A.** 7.88 µM

**Q.** And the IC50 (second compound 0.01 µM)?
**A.** > 10 µM

**Q.** And the IC50 (second compound 0.0316 µM)?
**A.** 7.6 µM

**Q.** And the IC50 (second compound 0.1 µM)?
**A.** 7.73 µM

**Q.** What about the IC50 (second compound 0.316 µM) of the same molecule?
**A.** 6.74 µM

**Q.** What about the IC50 (second compound 1 µM) of the same molecule?
**A.** > 10 µM

**Q.** What about the viability, T/C [1] of the same molecule?
**A.** 113%

**Q.** And the viability, T/C [2]?
**A.** 100%

**Q.** And the viability, T/C [3]?
**A.** 96.6%

**Q.** What about the viability, T/C [4] of the same molecule?
**A.** 118%

**Q.** And the viability, T/C [5]?
**A.** 93.2%

**Q.** And the viability, T/C [6]?
**A.** 38.8%

**Q.** And the viability, T/C [7]?
**A.** 94.2%

**Q.** What about the viability, T/C [8] of the same molecule?
**A.** 104%

**Q.** And the viability, T/C [9]?
**A.** 118%

**Q.** What about the viability, T/C [10] of the same molecule?
**A.** 98.3%

**Q.** And the viability, T/C [11]?
**A.** 89.4%

**Q.** And the viability, T/C [12]?
**A.** 51.7%

**Q.** What about the viability, T/C [13] of the same molecule?
**A.** 96.1%

**Q.** And the viability, T/C [14]?
**A.** 113%

**Q.** What about the viability, T/C [15] of the same molecule?
**A.** 95.3%

**Q.** What about the viability, T/C [16] of the same molecule?
**A.** 88.9%

**Q.** What about the viability, T/C [17] of the same molecule?
**A.** 101%

**Q.** And the viability, T/C [18]?
**A.** 34.6%

**Q.** And the viability, T/C [19]?
**A.** 98.9%

**Q.** And the viability, T/C [20]?
**A.** 92.2%

**Q.** What about the viability, T/C [21] of the same molecule?
**A.** 92.4%

**Q.** What about the viability, T/C [22] of the same molecule?
**A.** 92.5%

**Q.** And the viability, T/C [23]?
**A.** 98.6%

**Q.** And the viability, T/C [24]?
**A.** 37.1%

**Q.** What about the viability, T/C [25] of the same molecule?
**A.** 88.1%

**Q.** And the viability, T/C [26]?
**A.** 89%

**Q.** What about the viability, T/C [27] of the same molecule?
**A.** 84.3%

**Q.** What about the viability, T/C [28] of the same molecule?
**A.** 89.6%

**Q.** And the viability, T/C [29]?
**A.** 83.1%

**Q.** What about the viability, T/C [30] of the same molecule?
**A.** 32.7%

**Q.** What about the viability, T/C [31] of the same molecule?
**A.** 69.2%

**Q.** What about the viability, T/C [32] of the same molecule?
**A.** 81.7%

**Q.** What about the viability, T/C [33] of the same molecule?
**A.** 94.8%

**Q.** What about the viability, T/C [34] of the same molecule?
**A.** 66%

**Q.** And the viability, T/C [35]?
**A.** 77.8%

**Q.** What about the viability, T/C [36] of the same molecule?
**A.** 52.3%

**Q.** Which results are given for C[C@@H](NC(=O)c1ncnc(N)c1Cl)c1ncc(C(=O)Nc2cc(C(F)(F)F)c(Cl)cn2)s1 + CC(Nc1ccc2c(c1)OCCn1cc(N3C(=O)OCC3C(F)F)nc1-2)C(N)=O?
**A.** IC50 (second compound 0.00316 µM): > 10 µM; IC50 (second compound 0.01 µM): > 10 µM; IC50 (second compound 0.0316 µM): > 10 µM; IC50 (second compound 0.1 µM): > 10 µM; IC50 (second compound 0.316 µM): > 10 µM; IC50 (second compound 1 µM): > 10 µM; viability, T/C [1]: 94.6%; viability, T/C [2]: 117%; viability, T/C [3]: 127%; viability, T/C [4]: 75.7%; viability, T/C [5]: 136%; viability, T/C [6]: 96.7%; viability, T/C [7]: 99.2%; viability, T/C [8]: 71.4%; viability, T/C [9]: 115%; viability, T/C [10]: 87.5%; viability, T/C [11]: 98.3%; viability, T/C [12]: 108%; viability, T/C [13]: 84.9%; viability, T/C [14]: 104%; viability, T/C [15]: 115%; viability, T/C [16]: 103%; viability, T/C [17]: 112%; viability, T/C [18]: 90.3%; viability, T/C [19]: 105%; viability, T/C [20]: 112%; viability, T/C [21]: 104%; viability, T/C [22]: 96.8%; viability, T/C [23]: 97.7%; viability, T/C [24]: 93%; viability, T/C [25]: 72.5%; viability, T/C [26]: 103%; viability, T/C [27]: 105%; viability, T/C [28]: 88.2%; viability, T/C [29]: 86.7%; viability, T/C [30]: 97.2%; viability, T/C [31]: 68.7%; viability, T/C [32]: 73.4%; viability, T/C [33]: 67.5%; viability, T/C [34]: 79.3%; viability, T/C [35]: 94.4%; viability, T/C [36]: 83.9%
